In patent US7943340B2, “Fungal dipeptidyl peptidase IV (DPPIV) enzyme for reagent use” (priority 2003, dated 2011):
Read-outs that look alike come from different tables or passages of the source. Where a SMILES comes first, the peptide text is derived from it. [ ]: non-standard residue; d: D form. The star is where a group is joined. Sta = CC(C)C[C@H](N)[C@@H](O)CC(=O)O; Isovaleryl = CC(C)CC(=O)*

How the values were obtained:
ruLAP2 = ruLAP2 (Trichophyton rubrum, UniProt Q5QHG6); format: biochemical; settings: for ruLAP2 hydrolytic activity, percentage of control without any cation: Leu-MCA substrate
Chain of ruLAP2 (Q5QHG6 22-495): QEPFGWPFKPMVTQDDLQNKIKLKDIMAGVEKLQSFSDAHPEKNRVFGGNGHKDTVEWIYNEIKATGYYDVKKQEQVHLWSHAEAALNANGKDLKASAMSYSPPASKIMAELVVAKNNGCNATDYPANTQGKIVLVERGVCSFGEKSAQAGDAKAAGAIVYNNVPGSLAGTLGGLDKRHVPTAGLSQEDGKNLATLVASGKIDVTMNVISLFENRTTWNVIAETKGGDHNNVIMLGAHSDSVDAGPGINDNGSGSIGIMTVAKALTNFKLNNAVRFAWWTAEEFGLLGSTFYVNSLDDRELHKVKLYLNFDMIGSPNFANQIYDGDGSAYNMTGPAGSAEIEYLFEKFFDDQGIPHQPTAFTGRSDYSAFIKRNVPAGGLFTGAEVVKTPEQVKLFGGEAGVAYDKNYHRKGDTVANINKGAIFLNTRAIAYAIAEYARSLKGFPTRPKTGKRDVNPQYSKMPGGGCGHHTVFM
Protocol: (§1) Inhibitors and metallic cations were pre-incubated with the enzymes for 15 min at 37° C. Then, Leu-AMC at a 5 mM final concentration was added. After further incubation for 60 min, enzyme activity was measured as described above. The inhibitors and their concentrations tested purified LAPs were: 500 μM amastatin (Bachem), 40 μM benzamidine (Sigma), 500 μM bestatin (Bachem), 5 mM/l mM EDTA (Sigma). 100 μM E-64 (L-trans-epoxysuccinyl-leu-4-guanidinobutylamide) (Bachem), 100 μM leupeptin (Sigma), 5 mM/1 mM ortho-phenanthroline (Sigma), 500 μM p-chloromercuribenzoic acid (Sigma), 100 μM pepstatin A (Sigma), 40 μM PMSF (Sigma), 20 μM TLCK (Roche Diagnostics), and 20 μM TPCK (Roche Diagnostics).

fuLAP2 = format: biochemical, Aspergillus fumigatus; settings: for fuLAP2 hydrolytic activity, percentage of control without inhibitor: inhibitor 100 μM; for fuLAP2 hydrolytic activity, percentage of control without inhibitor / fuLAP2 hydrolytic activity, percentage of control without any cation: Leu-MCA substrate; for effect of divalent cation on fuLAP2 activity: Leu-AMC substrate
Protocol: as §1

[1] = tested on: all the LAPs tested (ruLAP1, ruLAP2, fuLAP1, fuLAP2, pkLAP); format: biochemical; settings: Leu-AMC 5 mM; amastatin 500 μM; ortho-phenantroline 1 and 5 mM; others as
Protocol: as §1

ruLAP1 = ruLAP1 (Trichophyton rubrum, UniProt Q5QHG5); format: biochemical; settings: for ruLAP1 hydrolytic activity, percentage of control without any cation: Leu-MCA substrate
Chain of ruLAP1 (Q5QHG5 19-373): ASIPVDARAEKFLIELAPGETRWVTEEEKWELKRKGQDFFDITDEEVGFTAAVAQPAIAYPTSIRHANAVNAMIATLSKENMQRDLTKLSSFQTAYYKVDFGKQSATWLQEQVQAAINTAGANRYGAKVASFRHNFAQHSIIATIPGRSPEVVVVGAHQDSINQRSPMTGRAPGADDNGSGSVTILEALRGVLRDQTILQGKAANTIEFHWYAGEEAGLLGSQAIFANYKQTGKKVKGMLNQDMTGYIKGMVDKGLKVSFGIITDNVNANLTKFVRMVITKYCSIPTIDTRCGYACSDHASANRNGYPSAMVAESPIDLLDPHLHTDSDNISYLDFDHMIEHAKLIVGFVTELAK
Protocol: as §1

fuLAP1 = fuLAP1 (Aspergillus fumigatus, UniProt Q5VJG6); format: biochemical; settings: for effect of divalent cation on fuLAP1 activity: Leu-AMC substrate; for fuLAP1 hydrolytic activity, percentage of control without any cation: Leu-MCA substrate
Chain of fuLAP1 (Q5VJG6 15-388, looked up, natural form): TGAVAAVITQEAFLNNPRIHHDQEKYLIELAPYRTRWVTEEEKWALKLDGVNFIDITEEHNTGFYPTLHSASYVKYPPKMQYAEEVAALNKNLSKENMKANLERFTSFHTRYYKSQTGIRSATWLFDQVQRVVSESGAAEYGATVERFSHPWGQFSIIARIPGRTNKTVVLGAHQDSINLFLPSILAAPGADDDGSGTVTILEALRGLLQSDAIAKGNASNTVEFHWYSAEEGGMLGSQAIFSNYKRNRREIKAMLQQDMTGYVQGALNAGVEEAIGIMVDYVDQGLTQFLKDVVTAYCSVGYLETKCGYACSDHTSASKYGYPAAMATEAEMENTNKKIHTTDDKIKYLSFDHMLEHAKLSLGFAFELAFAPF
Protocol: as §1

[2] = biological target: T1, pkLAP (microsomal LAP from porcine kidney) (Sus scrofa, UniProt P15145); assay: Effect of chemical reagents (inhibitors, metallic cations) on LAP activity with Leu-AMC; format: biochemical; settings: for pkLAP hydrolytic activity, percentage of control without any cation: Leu-MCA substrate; for effect of divalent cation on pkLAP activity: Leu-AMC substrate
T1 construct: purchased Sigma; host or cells: porcine kidney
T1 sequence (P15145 1-963): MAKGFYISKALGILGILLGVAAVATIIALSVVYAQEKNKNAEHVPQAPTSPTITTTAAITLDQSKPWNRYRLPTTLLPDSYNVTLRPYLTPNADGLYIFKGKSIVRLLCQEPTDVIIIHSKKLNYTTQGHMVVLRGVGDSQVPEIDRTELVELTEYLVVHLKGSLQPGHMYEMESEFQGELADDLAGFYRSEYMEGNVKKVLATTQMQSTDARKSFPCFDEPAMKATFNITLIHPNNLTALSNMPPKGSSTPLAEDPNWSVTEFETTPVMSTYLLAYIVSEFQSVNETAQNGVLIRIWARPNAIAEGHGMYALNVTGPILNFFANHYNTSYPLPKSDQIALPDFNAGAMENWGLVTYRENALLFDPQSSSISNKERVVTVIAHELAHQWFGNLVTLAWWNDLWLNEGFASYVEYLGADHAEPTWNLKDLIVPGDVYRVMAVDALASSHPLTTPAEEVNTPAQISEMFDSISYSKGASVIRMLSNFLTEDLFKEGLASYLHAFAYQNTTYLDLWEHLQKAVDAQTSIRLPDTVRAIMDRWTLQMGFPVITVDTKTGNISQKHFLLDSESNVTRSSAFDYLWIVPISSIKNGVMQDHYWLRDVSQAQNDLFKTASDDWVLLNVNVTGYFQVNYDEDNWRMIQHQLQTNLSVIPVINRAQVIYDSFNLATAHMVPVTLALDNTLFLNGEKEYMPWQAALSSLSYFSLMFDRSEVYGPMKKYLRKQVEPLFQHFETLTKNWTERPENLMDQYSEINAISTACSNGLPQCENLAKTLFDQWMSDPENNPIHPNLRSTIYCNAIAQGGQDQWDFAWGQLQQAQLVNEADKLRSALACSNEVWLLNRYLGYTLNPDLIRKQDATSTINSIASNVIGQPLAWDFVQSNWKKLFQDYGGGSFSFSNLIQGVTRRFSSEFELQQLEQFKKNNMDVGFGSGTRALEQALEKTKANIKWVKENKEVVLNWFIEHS
Protocol: as §1

[3] = Leu-AMC 5 mM, inhibitor concentrations, pepstatin 0.1 mM

Row | Compound | effect of inhibitor on ruLAP2 activity (ruLAP2; Leu-AMC 5 mM, inhibitor concentrations) | fuLAP2 hydrolytic activity, percentage of control without inhibitor (fuLAP2) [%] | effect of inhibitor on all the LAPs tested [1] | effect of divalent cation on fuLAP2 activity (fuLAP2) | fuLAP2 hydrolytic activity, percentage of control without any cation (fuLAP2; cation salt 0.5 mM) [%] | fuLAP2 hydrolytic activity, percentage of control without any cation (fuLAP2; cation salt 1 mM) [%] | ruLAP1 hydrolytic activity, percentage of control without any cation (ruLAP1; cation salt 0.5 mM) [%] | ruLAP1 hydrolytic activity, percentage of control without any cation (ruLAP1; cation salt 1 mM) [%] | ruLAP2 hydrolytic activity, percentage of control without any cation (ruLAP2; cation salt 0.5 mM) [%] | ruLAP2 hydrolytic activity, percentage of control without any cation (ruLAP2; cation salt 1 mM) [%] | effect of divalent cation on fuLAP1 activity (fuLAP1) | fuLAP1 hydrolytic activity, percentage of control without any cation (fuLAP1; cation salt 0.5 mM) [%] | fuLAP1 hydrolytic activity, percentage of control without any cation (fuLAP1; cation salt 1 mM) [%] | pkLAP hydrolytic activity, percentage of control without any cation ([2]; cation salt 0.5 mM) [%] | pkLAP hydrolytic activity, percentage of control without any cation ([2]; cation salt 1 mM) [%] | effect of inhibitor on ruLAP1 activity (ruLAP1; [3]) | effect of inhibitor on fuLAP1 activity (fuLAP1; [3]) | effect of divalent cation on pkLAP activity [2]
1 | CC(C)C[C@H](NC(=O)[C@H]1O[C@@H]1C(=O)O)C(=O)NCCCCN=C(N)N (relative stereo) [E64, L-trans-epoxysuccinyl-leu-4-guanidinobutylamide] | blunted the activity |  |  |  |  |  |  |  |  |  |  |  |  |  |  |  |  | 
2 | CC(=O)N[C@@H](CC(C)C)C(=O)N[C@@H](CC(C)C)C(=O)N[C@H](C=O)CCCNC(=N)N [Leupeptin, leupeptin] |  | 61 | no clear inhibitory effects |  |  |  |  |  |  |  |  |  |  |  |  |  |  | 
3 | [Cl][Mn][Cl] [Mn^++, MnCl2] |  |  |  | activated | 84.3 | 140.2 | 120.7 | 105.2 | 77.5 | 86.8 | inhibited | 25.9 | 28.4 | 157.6 | 165.8 |  |  | 
4 | CC(C)CC(=O)N[C@H](C(=O)N[C@H](C(=O)N[C@@H](CC(C)C)[C@@H](O)CC(=O)N[C@@H](C)C(=O)N[C@@H](CC(C)C)[C@@H](O)CC(=O)O)C(C)C)C(C)C [pepstatin, pepstatin A] (Isovaleryl-VV[Sta]A[Sta]-OH) |  | 73 |  |  |  |  |  |  |  |  |  |  |  |  |  | some sensitivity | some sensitivity | 
5 | [Cl][Cu][Cl] [Cu^++, CuCl2] |  |  |  |  | 68.9 | 73.6 |  |  | 50.9 | 34.7 |  | 25.8 | 17.0 | 1422.0 | 1092.4 |  |  | highly activated
6 | [Cl-].[Cl-].[Zn+2] [Zn, ZnCl2] |  |  |  |  | 51.4 | 119.5 | 43.0 | 68.9 | 77.9 | 88.9 |  | 60.7 | 53.2 | 437.6 | 297.9 |  |  | highly activated
7 | [Cl][Ni][Cl] [Ni, NiCl2] |  |  |  |  | 98.4 | 149.3 | 74.8 | 58.1 | 130.5 | 147.9 |  | 51.7 | 37.2 | 1187.7 | 1158.7 |  |  | highly activated
8 | [Cl-].[Cl-].[Mg+2] [MgCl2] |  |  |  |  | 97.6 | 108.0 | 129.9 | 132.6 | 121.2 | 110.2 |  | 68.5 | 72.6 | 130.1 | 146.1 |  |  | 
9 | [Ca+2] [Ca^++] |  |  |  | activated |  |  |  |  |  |  | inhibited |  |  |  |  |  |  | 
